The record followed here is patent EP0437336B1, “Biophosphoryl hydrazines and their use as pesticides” (priority 1990, dated 1991).

Converted amounts (≈) assume the structure as drawn. Where two headings read alike, the source gives them in different places.

Data set [1] deals with Japanese beetle (Popillia japonica ) eggs. Put plainly: Biological Method E: Turf Grub Insecticidal Activity Test. Format: in vivo. The note with it: soil incorporation. The method, then:
Biological Method E: Turf Grub Insecticidal Activity Test
These will give soil concentrations of […] (1.6, 0.8, 0.4, and 0.2 pounds per acre), respectively.
Ten milliliters of test solution were incorporated into 250 ml of moistened soil (clay loam, 90% : humus soil, 10%) and allowed to air in an uncapped pint jar for about 2 hours. After airing, a small amount of seed mixture containing equal parts of redtop (Agrostis alba ) and white clover (Trifolium repens ) was incorporated into the soil. Two 50 ml quantities of soil were placed into dep 88.72 cm³ (3 ounce) ointment tin cans.
Ten Japanese beetle (Popillia japonica ) eggs were placed into the soil in each can and the can capped with its tined lid. Treatments were held for 23 days at 30 degrees Centigrade.
Upon termination, the soil was sieved to isloate the grubs. The percent mortality was determined for each concentration.

Data set [2] deals with southern corn rootworm, Diabrotica undecimpunctata howardi. The note with it: at-planting soil application.
The test system of data set [3] is Green Peach Aphid. The experiment in a line: Biological Method D: Foliar Insecticidal Activity Test, aphid test. Format: in vivo, Myzus persicae. Further details: key: I = inactive at concentration listed.
For data set [4], the system named is Southern Armyworm. The experiment in a line: Biological Method D: Foliar Insecticidal Activity Test, Southern Armyworm test. The class given is in vivo, Spodoptera eridania. Further details: key: I = inactive at concentration listed.
Data set [5] relates to southern corn rootworm, Diabrotica undecimpunctata howardi. Put plainly: Biological Method A: Corn Rootworm Screening Test (treated non-aggressive soil). The note with it: soil concentration giving 90% mortality, 10 days at 27°C.
Data set [6] deals with Boll Weevil. Put plainly: Biological Method D: Foliar Insecticidal Activity Test, boll weevil test. The class given is in vivo, Anthonomous grandis. Further details: key: I = inactive at concentration listed.
In data set [7] the test system is Mexican Bean Beetle. Put plainly: Biological Method D: Foliar Insecticidal Activity Test, Mexican Bean Beetle test. Format: in vivo, Epilachna varivestis. The note with it: Epilachna varivestis, Method D foliar test, Mexican Bean Beetle.
For data set [8], the system named is Two-Spotted Spider Mite. The experiment in a line: Biological Method D: Foliar Insecticidal Activity Test, mite test. Format: in vivo, Tetranychus urticae. Further details: key to LC50 TSM: I = inactive at concentration listed. The note with it: Method D foliar test; Two-Spotted Spider Mite.
In data set [9] the test system is southern corn rootworm, Diabrotica undecimpunctata howardi. The note with it: Diabrotica undecimpunctata, in Zea mays, foliar, 336 h, read-out: foliar systemic nonagressive Method B crw % control at 0.56 kg/ha (0.5 lb/acre).

For `CCCOP(=S)(NNP(=S)(OCC)OCC(C)(C)C)OCCC` (centres unmarked) [Compound 41, N-(O,O-dipropylthiophosphoryl) N′-(O-ethyl O-neopentylthiophosphoryl) hydrazine], the LC95 in data set [1] (23 days at 30 degrees Centigrade) is listed as < 0.22 kg/ha; in [1] (23 days, value in brackets) it was < 0.2 pounds per acre. Besides, the “secondary aggressive Method C crw LC50” value in data set [2] (rated 17 days post-infestation) is given as 0.3 kg/ha; in data set [2] (value in brackets), 0.27 lb/acre. Also, in data set [3], the “LC50 GPA” value is “I”. In data set [4] (48 hrs), the “LC50 AW 48 hrs” value is on record as “I”. Besides, the “LC50 AW 96 hrs” value in data set [4] (96 hrs) was “I”. For the same compound, in [5], the “primary nonagressive Method A crw LC90” value came to 0.06 ppm. The “LC50 BW 48 hrs” value in data set [6] (48 hrs) is listed as “I”. For the same compound, the “LC50 BW 96 hrs” value in data set [6] (96 hrs) was “I”. In addition, the 50% lethal concentration (LC50) in [7] (48 hrs, read-out: LC50 BB 48 hrs.) is 62 mg/L (≈ 153 µM); in data set [7] (96 hrs, read-out: LC50 BB 96 hrs), 78 mg/L (≈ 192 µM). In addition, the “LC50 TSM” value in [8] is recorded as “I”. The pest or weed control at 560 g/ha in [9] was determined as 31%.
